Patent US8580831B2, “Fluorinated aminotriazole derivatives” (Actelion Pharmaceuticals Ltd., priority 2009, dated 2013)

Target: T1, human ALX receptor (Homo sapiens, UniProt P25090)
T1 construct: expressed in transfected cells; host or cells: HEK293 (HEK293-hALXR-Ga16)
T1 sequence (P25090 1-351): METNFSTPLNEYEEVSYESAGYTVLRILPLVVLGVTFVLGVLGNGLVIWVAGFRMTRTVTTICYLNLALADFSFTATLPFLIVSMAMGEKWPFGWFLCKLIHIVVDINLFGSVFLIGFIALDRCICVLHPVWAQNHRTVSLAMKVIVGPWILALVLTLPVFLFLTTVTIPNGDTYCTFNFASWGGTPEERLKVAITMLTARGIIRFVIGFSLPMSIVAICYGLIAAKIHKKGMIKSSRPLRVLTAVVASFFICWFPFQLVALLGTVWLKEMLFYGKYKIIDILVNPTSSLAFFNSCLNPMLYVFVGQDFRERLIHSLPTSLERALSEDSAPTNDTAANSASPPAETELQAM
Test: Intracellular calcium measurements (FLIPR), ALX receptor agonistic activity
Format: cell-based
Details: HEK293-hALXR-Ga16 cells, calcium flux, normalized to WKYMVm 10 nM; read-out: EC50 (agonistic activity with respect to the ALX receptor)
Procedure: The ALX receptor agonistic activity of the compounds of formula (I) is determined in accordance with the following experimental method.
Intracellular Calcium Measurements:
Cells expressing recombinant human ALX receptor and the G-protein Ga16 (HEK293-hALXR-Ga16) were grown to 80% confluency in Growing Medium (GM). Cells were detached from culture dishes with a cell dissociation buffer (Invitrogen, 13151-014), and collected by centrifugation at 1′000 rpm at rt for 5 min in Assay Buffer (AB) (equal parts of Hank's BSS (Gibco, 14065-049) and DMEM without Phenol Red (Gibco, 11880-028)). After 60 min incubation at 37° C. under 5% CO2 in AB supplemented with 1 μM Fluo-4 (AM) (Invitrogen, F14202) and 20 mM HEPES (Gibco, 15630-056), the cells were washed and resuspended in AB. They were then seeded onto 384-well FLIPR assay plates (Greiner, 781091) at 50′000 cells in 70 μl per well and sedimented by centrifugation at 1′000 rpm for 1 min. Stock solutions of test compounds were made up at a concentration of 10 mM in DMSO, and serially diluted in AB to concentrations required for activation dose response curves. WKYMVm (Phoenix Peptides) was used as a reference agonist. A FLIPR Tetra instrument (Molecular Devices) was operated according to the manufacturer's standard instructions, adding 4 μl of test compound dissolved at 10 mM in DMSO and diluted prior to the experiment in assay buffer to obtain the desired final concentration. Changes in fluorescence were monitored before and after the addition of test compounds at lex=488 nm and lem=540 nm. Emission peak values above base level after compounds addition were exported after base line subtraction. Values were normalized to high-level control (WKYMVm compound, 10 nM final concentration) after subtraction of the base line value (AB addition).

Structure (SMILES) | EC50
Cc1nc(C(=O)Nc2cnn(Cc3ccc(C(C)(F)F)o3)n2)c(-c2cc(F)cc(F)c2)o1 [Example 18, 5-(3,5-Difluoro-phenyl)-2-methyl-oxazole-4-carboxylic acid {2-[5-(1,1-difluoro-ethyl)-furan-2-ylmethyl]-2H-[1,2,3]triazol-4-yl}-amide] | 0.661 µM
Cc1cc(F)cc(-c2oc(C)nc2C(=O)Nc2cnn(Cc3nc(C(C)(F)F)cs3)n2)c1 [Example 13, 5-(3-Fluoro-5-methyl-phenyl)-2-methyl-oxazole-4-carboxylic acid{2-[4-(1,1-difluoro-ethyl)-thiazol-2-ylmethyl]-2H-[1,2,3]triazol-4-yl}-amide] | 1.13 µM
CC(F)(F)c1csc(Cn2ncc(NC(=O)c3ncoc3-c3ccc(F)cc3)n2)n1 [Example 25, 5-(4-Fluoro-phenyl)-oxazole-4-carboxylic acid {2-[4-(1,1-difluoro-ethyl)-thiazol-2-ylmethyl]-2H-[1,2,3]triazol-4-yl}-amide] | 0.221 µM
CN(C)c1cccc(-c2ocnc2C(=O)Nc2cnn(Cc3ccc(C(C)(F)F)o3)n2)c1 [Example 19, 5-(3-Dimethylamino-phenyl)-oxazole-4-carboxylic acid {2-[5-(1,1-difluoro-ethyl)-furan-2-ylmethyl]-2H-[1,2,3]triazol-4-yl}-amide] | 0.033 µM
Cc1nc(C(=O)Nc2cnn(Cc3nc(C(C)(F)F)cs3)n2)c(-c2cc(F)cc(F)c2)o1 [Example 5, 5-(3,5-Difluoro-phenyl)-2-methyl-oxazole-4-carboxylic acid {2-[4-(1,1-difluoro-ethyl)-thiazol-2-ylmethyl]-2H-[1,2,3]triazol-4-yl}-amide] | 0.818 µM
Cc1nc(C(=O)Nc2cnn(Cc3ccc(C(C)(F)F)o3)n2)c(-c2cccc(OC(F)(F)F)c2)o1 [Example 27, 2-Methyl-5-(3-trifluoromethoxy-phenyl)-oxazole-4-carboxylic acid {2-[5-(1,1-difluoro-ethyl)-furan-2-ylmethyl]-2H-[1,2,3]triazol-4-yl}-amide] | 0.059 µM
CN(C)c1cccc(-c2ocnc2C(=O)Nc2cnn(Cc3nc(C(C)(F)F)co3)n2)c1 [Example 34, 5-(3-Dimethylamino-phenyl)-oxazole-4-carboxylic acid {2-[4-(1,1-difluoro-ethyl)-oxazol-2-ylmethyl]-2H-[1,2,3]triazol-4-yl}-amide] | 0.0061 µM
Cc1cccc(-c2oc(C)nc2C(=O)Nc2cnn(Cc3coc(C(C)(F)F)n3)n2)c1 [Example 32, N-(2-((2-(1,1-Difluoroethyl)oxazol-4-yl)methyl)-2H-1,2,3-triazol-4-yl)-2-methyl-5-(m-tolyl)oxazole-4-carboxamide] | 0.012 µM
Cc1cccc(-c2ocnc2C(=O)Nc2cnn(Cc3nc(C(C)(F)F)cs3)n2)c1 [Example 17, 5-m-Tolyl-oxazole-4-carboxylic acid {2-[4-(1,1-difluoro-ethyl)-thiazol-2-ylmethyl]-2H-[1,2,3]triazol-4-yl}-amide] | 0.011 µM
CC(F)(F)c1ccc(Cn2ncc(NC(=O)c3ncoc3-c3ccccc3)n2)o1 [Example 28, 5-Phenyl-oxazole-4-carboxylic acid {2-[5-(1,1-difluoro-ethyl)-furan-2-ylmethyl]-2H-[1,2,3]triazol-4-yl}-amide] | 0.006 µM
CCc1nc(C(=O)Nc2cnn(Cc3nc(C(C)(F)F)cs3)n2)c(-c2ccccc2)o1 [Example 30, 2-Ethyl-5-phenyl-oxazole-4-carboxylic acid {2-[4-(1,1-difluoro-ethyl)-thiazol-2-ylmethyl]-2H-[1,2,3]triazol-4-yl}-amide] | 0.011 µM
CC(F)(F)c1ccc(Cn2ncc(NC(=O)c3ncoc3-c3cccc(Cl)c3)n2)o1 [Example 7, 5-(3-Chloro-phenyl)-oxazole-4-carboxylic acid{2-[5-(1,1-difluoro-ethyl)-furan-2-ylmethyl]-2H-[1,2,3]triazol-4-yl}-amide] | 0.017 µM
CC(F)(F)c1ccc(Cn2ncc(NC(=O)c3ncoc3-c3cccc(F)c3)n2)o1 [Example 11, 5-(3-Fluoro-phenyl)-oxazole-4-carboxylic acid {2-[5-(1,1-difluoro-ethyl)-furan-2-ylmethyl]-2H-[1,2,3]triazol-4-yl}-amide] | 0.0099 µM
Cc1cc(F)cc(-c2oc(C)nc2C(=O)Nc2cnn(Cc3ccc(C(C)(F)F)o3)n2)c1 [Example 26, 5-(3-Fluoro-5-methyl-phenyl)-2-methyl-oxazole-4-carboxylic acid {2-[5-(1,1-difluoro-ethyl)-furan-2-ylmethyl]-2H-[1,2,3]triazol-4-yl}-amide] | 0.742 µM
Cc1nc(C(=O)Nc2cnn(Cc3ccc(C(C)(F)F)o3)n2)c(-c2ccccc2)o1 [Example 4, 2-Methyl-5-phenyl-oxazole-4-carboxylic acid{2-[5-(1,1-difluoro-ethyl)-furan-2-ylmethyl]-2H-[1,2,3]triazol-4-yl}-amide] | 0.0009 µM
COc1cccc(-c2ocnc2C(=O)Nc2cnn(Cc3ccc(C(C)(F)F)o3)n2)c1 [Example 21, 5-(3-Methoxy-phenyl)-oxazole-4-carboxylic acid {2-[5-(1,1-difluoro-ethyl)-furan-2-ylmethyl]-2H-[1,2,3]triazol-4-yl}-amide] | 0.035 µM
Cc1nc(C(=O)Nc2cnn(Cc3nc(C(C)(F)F)cs3)n2)c(-c2cccc(C(F)(F)F)c2)o1 [Example 6, 2-Methyl-5-(3-trifluoromethyl-phenyl)-oxazole-4-carboxylic acid {2-[4-(1,1-difluoro-ethyl)-thiazol-2-ylmethyl]-2H-[1,2,3]triazol-4-yl}-amide] | 0.014 µM
Cc1nc(C(=O)Nc2cnn(Cc3nc(C(C)(F)F)cs3)n2)c(-c2cccc(Cl)c2)o1 [Example 29, 5-(3-Chloro-phenyl)-2-methyl-oxazole-4-carboxylic acid {2-[4-(1,1-difluoro-ethyl)-thiazol-2-ylmethyl]-2H-[1,2,3]triazol-4-yl}-amide] | 0.0056 µM
Cc1cccc(-c2oc(C)nc2C(=O)Nc2cnn(Cc3ccc(C(C)(F)F)o3)n2)c1 [Example 1, 2-Methyl-5-m-tolyl-oxazole-4-carboxylic acid {2-[5-(1,1-difluoro-ethyl)-furan-2-ylmethyl]-2H-[1,2,3]triazol-4-yl}-amide] | 0.0081 µM
CC(F)(F)c1csc(Cn2ncc(NC(=O)c3ncoc3-c3ccccc3)n2)n1 [Example 2, 5-Phenyl-oxazole-4-carboxylic acid {2-[4-(1,1-difluoro-ethyl)-thiazol-2-ylmethyl]-2H-[1,2,3]triazol-4-yl}-amide] | 0.019 µM
Cc1nc(C(=O)Nc2cnn(Cc3nc(C(C)(F)F)co3)n2)c(-c2ccccc2)o1 [Example 33, 2-Methyl-5-phenyl-oxazole-4-carboxylic acid {2-[4-(1,1-difluoro-ethyl)-oxazol-2-ylmethyl]-2H-[1,2,3]triazol-4-yl}-amide] | 0.0029 µM
Cc1nc(C(=O)Nc2cnn(Cc3nc(C(C)(F)F)cs3)n2)c(-c2ccccc2)o1 [Example 10, 2-Methyl-5-phenyl-oxazole-4-carboxylic acid{2-[4-(1,1-difluoro-ethyl)-thiazol-2-ylmethyl]-2H-[1,2,3]triazol-4-yl}-amide] | 0.0063 µM
COc1cccc(-c2ocnc2C(=O)Nc2cnn(Cc3nc(C(C)(F)F)cs3)n2)c1 [Example 8, 5-(3-Methoxy-phenyl)-oxazole-4-carboxylic acid{2-[4-(1,1-difluoro-ethyl)-thiazol-2-ylmethyl]-2H-[1,2,3]triazol-4-yl}-amide] | 0.069 µM
Cc1nc(C(=O)Nc2cnn(Cc3ccc(C(C)(F)F)o3)n2)c(-c2cccc(C(F)(F)F)c2)o1 [Example 24, 2-Methyl-5-(3-trifluoromethyl-phenyl)-oxazole-4-carboxylic acid {2-[5-(1,1-difluoro-ethyl)-furan-2-ylmethyl]-2H-[1,2,3]triazol-4-yl}-amide] | 0.0021 µM
Cc1nc(C(=O)Nc2cnn(Cc3nc(C(C)(F)F)cs3)n2)c(-c2cccc(OC(F)(F)F)c2)o1 [Example 14, 2-Methyl-5-(3-trifluoromethoxy-phenyl)-oxazole-4-carboxylic acid{2-[4-(1,1-difluoro-ethyl)-thiazol-2-ylmethyl]-2H-[1,2,3]triazol-4-yl}-amide] | 0.058 µM
CC(F)(F)c1csc(Cn2ncc(NC(=O)c3ncoc3-c3cccc(F)c3)n2)n1 [Example 20, 5-(3-Fluoro-phenyl)-oxazole-4-carboxylic acid {2-[4-(1,1-difluoro-ethyl)-thiazol-2-ylmethyl]-2H-[1,2,3]triazol-4-yl}-amide] | 0.055 µM
